In article PMC11954736 (BioImpacts : BI, 2024):

Columns and labels:
MCF7 = assay: Cell viability assay; assay type: cell-based, human; details: MTT, 48 h exposure; LD50: concentration that causes 50% of cell viability
PC12 cells = assay: Cell viability assay; assay type: cell-based, rat; details: MTT, 48 h exposure, studied concentrations
B16 = assay: Cell viability assay; assay type: cell-based, murine; details: MTT, 48 h exposure; LD50: concentration that causes 50% of cell viability
TNFα = assay: Western blot of TNFα in rat hippocampal tissue; assay type: in vivo, Wistar rats; details: Aβ induced AD rats, oral, 21 days
[1] = tested on: Aβ-induced memory impairment in Wistar rats; assay: Morris water maze; assay type: in vivo; details: Aβ induced AD rats, oral, 21 days; 3rd and fourth training days
NF-κB = assay: Western blot of NF-κB in rat hippocampal tissue; assay type: in vivo, Wistar rats; details: Aβ induced AD rats, oral, 21 days

| SMILES | MCF7 (LD50 µM) (MCF7) [µM] | PC12 (LD50 µM) (PC12 cells) | PC12 (LD50 µM) (PC12 cells; listed as galantamine) | B16 (LD50 µM) (B16) [µM] | TNFα level in hippocamp tissue (western blot) (TNFα) | Escape latency time, MWM [1] | NF-κB level in hippocamp tissue (western blot) (NF-κB) |
| --- | --- | --- | --- | --- | --- | --- | --- |
| COc1ccc2c3c1O[C@H]1C[C@@H](O)C=C[C@@]31CCN(C)C2 [Galantamine] | 31.19 | No growth inhibition* | no significant effect | 34.09 |  |  |  |
| COc1cc2c(cc1OC)C(=O)C(CC1CCN(Cc3ccccc3)CC1)C2 (stereo not shown) [Donepezil] |  |  |  |  | Downregulation | significantly decreased | Downregulation |
